Measured values published in US8367838B2, “Amines or amino alcohols as GLYT1 inhibitors” (Hoffmann-La Roche Inc., priority 2009, dated 2013).

The compounds below were run against T1, mGlyT-1b (Mus musculus, UniProt P28571) (assay: Glycine uptake inhibition assay (mGlyT-1b), [3H]-glycine uptake in transfected Flp-in-CHO cells). Details: Flp-in-CHO cells transfected with mGlyT-1b cDNA; [3H]-glycine 60 nM and 25 μM non-radioactive glycine; 20 min preincubation at 22° C.; read-out: IC50 (μM) at GlyT-1; Ic50 (hglyt1b).
T1 construct: host or cells: Flp-in-CHO
T1 sequence (P28571 1-651 isoform P28571-2): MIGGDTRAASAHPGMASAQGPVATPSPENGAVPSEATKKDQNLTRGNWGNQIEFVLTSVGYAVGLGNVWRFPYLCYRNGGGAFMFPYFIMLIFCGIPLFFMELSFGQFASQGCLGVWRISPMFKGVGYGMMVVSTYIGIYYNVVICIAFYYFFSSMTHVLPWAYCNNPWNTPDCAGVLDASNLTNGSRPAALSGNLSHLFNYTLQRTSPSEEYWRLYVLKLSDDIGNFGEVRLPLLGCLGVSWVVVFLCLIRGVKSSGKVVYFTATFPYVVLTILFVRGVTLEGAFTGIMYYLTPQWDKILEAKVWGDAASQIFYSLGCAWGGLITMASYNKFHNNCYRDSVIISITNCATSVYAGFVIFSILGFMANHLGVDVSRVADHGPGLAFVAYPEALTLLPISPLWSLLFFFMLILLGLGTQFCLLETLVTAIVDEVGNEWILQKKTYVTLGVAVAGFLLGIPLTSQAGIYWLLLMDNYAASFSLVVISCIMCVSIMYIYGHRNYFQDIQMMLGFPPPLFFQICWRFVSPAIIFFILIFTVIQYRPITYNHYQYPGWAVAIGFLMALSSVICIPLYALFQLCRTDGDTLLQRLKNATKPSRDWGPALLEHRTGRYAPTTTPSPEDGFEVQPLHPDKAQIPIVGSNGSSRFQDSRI
Type: cell-based
Method in brief: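 Flp-in CHO cells stably expressing mouse GlyT-1b were preincubated 20 min at 22 °C with inhibitor in pH 7.4 Hepes-Tris buffer. Uptake was then run with 60 nM [3H]-glycine plus 25 μM unlabeled glycine, with 10 mM glycine defining nonspecific uptake. Cell radioactivity was counted by scintillation to derive IC50.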

SMILES	IC50
CC(=O)Nc1cccc(-c2ccc([C@@H](O)[C@@H](N)c3ccc(Cl)cc3)cc2)c1 (racemic) [Example 67, rac-erythro-N-[4′-[2-Amino-2-(4-chloro-phenyl)-1-hydroxy-ethyl]-biphenyl-3-yl]-acetamide]	0.173 µM
N[C@@H](c1ccc(Cl)cc1)[C@H](O)c1ccc(-c2ccccc2F)cc1 (racemic) [Example 68, rac-erythro-2-Amino-2-(4-chloro-phenyl)-1-(2′-fluoro-biphenyl-4-yl)-ethanol]	0.18 µM
Nc1ccc(-c2ccc([C@@H](O)[C@@H](N)c3ccc(Cl)cc3)cc2)cn1 (racemic) [Example 69, rac-erythro-2-Amino-1-[4-(6-amino-pyridin-3-yl)-phenyl]-2-(4-chloro-phenyl)-ethanol]	0.217 µM
N[C@@H](c1ccc(Cl)cc1)[C@H](O)c1ccc(-c2ccsc2)cc1 (racemic) [Example 70, rac-erythro-2-Amino-2-(4-chloro-phenyl)-1-(4-thiophen-3-yl-phenyl)-ethanol]	0.297 µM
Cc1cccc(-c2ccc([C@@H](O)[C@@H](N)c3ccc(Cl)cc3)cc2)c1 (racemic) [Example 71, rac-erythro-2-Amino-2-(4-chloro-phenyl)-1-(3′-methyl-biphenyl-4-yl)-ethanol]	0.342 µM
COc1cccc(-c2ccc([C@@H](O)[C@@H](N)c3ccc(Cl)cc3)cc2)c1 (racemic) [Example 72, rac-erythro-2-Amino-2-(4-chloro-phenyl)-1-(3′-methoxy-biphenyl-4-yl)-ethanol]	0.385 µM
N[C@@H](c1ccc(Cl)cc1)[C@H](O)c1ccc(-c2ccccc2Cl)cc1 (racemic) [Example 73, rac-erythro-2-Amino-1-(2′-chloro-biphenyl-4-yl)-2-(4-chloro-phenyl)-ethanol]	0.462 µM
N[C@@H](c1ccc(Cl)cc1)[C@H](O)c1ccc(-c2cccc(Cl)c2)cc1 (racemic) [Example 74, rac-erythro-2-Amino-1-(3′-chloro-biphenyl-4-yl)-2-(4-chloro-phenyl)-ethanol]	0.544 µM

Now from value to compound:

IC50	SMILES
0.582 µM	Cc1nc(C)c(-c2ccc([C@@H](O)[C@@H](N)c3ccc(Cl)cc3)cc2)s1 (racemic) [Example 75, rac-erythro-2-Amino-2-(4-chloro-phenyl)-1-[4-(2,4-dimethyl-thiazol-5-yl)-phenyl]-ethanol]
0.642 µM	Cc1ccccc1-c1ccc([C@@H](O)[C@@H](N)c2ccc(Cl)cc2)cc1 (racemic) [Example 76, rac-erythro-2-Amino-2-(4-chloro-phenyl)-1-(2′-methyl-biphenyl-4-yl)-ethanol]
0.814 µM	COc1ccc(-c2ccc([C@@H](O)[C@@H](N)c3ccc(Cl)cc3)cc2)cn1 (racemic) [Example 77, rac-erythro-2-Amino-2-(4-chloro-phenyl)-1-[4-(6-methoxy-pyridin-3-yl)-phenyl]-ethanol]
0.88 µM	N[C@@H](c1ccc(Cl)cc1)[C@H](O)c1ccc(-c2cccc(OC(F)(F)F)c2)cc1 (racemic) [Example 78, rac-erythro-2-Amino-2-(4-chloro-phenyl)-1-(3′-trifluoromethoxy-biphenyl-4-yl)-ethanol]
0.93 µM	N[C@@H](c1ccc(Cl)cc1)[C@H](O)c1ccc(-c2cccc(C(F)(F)F)c2)cc1 (racemic) [Example 79, rac-erythro-2-Amino-2-(4-chloro-phenyl)-1-(3′-trifluoromethyl-biphenyl-4-yl)-ethanol]
1.04 µM	N[C@@H](c1ccc(Cl)cc1)[C@H](O)c1ccc(N2CCOCC2)nc1 (racemic) [Example 80, rac-erythro-2-Amino-2-(4-chloro-phenyl)-1-(6-morpholin-4-yl-pyridin-3-yl)-ethanol]
0.031 µM	N[C@@H](c1ccc(Cl)c(Cl)c1)[C@H](O)c1ccc(-c2cccnc2)cc1 (racemic) [Example 81, rac-erythro-2-Amino-2-(3,4-dichloro-phenyl)-1-(4-pyridin-3-yl-phenyl)-ethanol]
